What all share (assay): biochemical
One experiment deals with T1, FLT3 (Homo sapiens, UniProt P36888).
T1 sequence (P36888 1-993): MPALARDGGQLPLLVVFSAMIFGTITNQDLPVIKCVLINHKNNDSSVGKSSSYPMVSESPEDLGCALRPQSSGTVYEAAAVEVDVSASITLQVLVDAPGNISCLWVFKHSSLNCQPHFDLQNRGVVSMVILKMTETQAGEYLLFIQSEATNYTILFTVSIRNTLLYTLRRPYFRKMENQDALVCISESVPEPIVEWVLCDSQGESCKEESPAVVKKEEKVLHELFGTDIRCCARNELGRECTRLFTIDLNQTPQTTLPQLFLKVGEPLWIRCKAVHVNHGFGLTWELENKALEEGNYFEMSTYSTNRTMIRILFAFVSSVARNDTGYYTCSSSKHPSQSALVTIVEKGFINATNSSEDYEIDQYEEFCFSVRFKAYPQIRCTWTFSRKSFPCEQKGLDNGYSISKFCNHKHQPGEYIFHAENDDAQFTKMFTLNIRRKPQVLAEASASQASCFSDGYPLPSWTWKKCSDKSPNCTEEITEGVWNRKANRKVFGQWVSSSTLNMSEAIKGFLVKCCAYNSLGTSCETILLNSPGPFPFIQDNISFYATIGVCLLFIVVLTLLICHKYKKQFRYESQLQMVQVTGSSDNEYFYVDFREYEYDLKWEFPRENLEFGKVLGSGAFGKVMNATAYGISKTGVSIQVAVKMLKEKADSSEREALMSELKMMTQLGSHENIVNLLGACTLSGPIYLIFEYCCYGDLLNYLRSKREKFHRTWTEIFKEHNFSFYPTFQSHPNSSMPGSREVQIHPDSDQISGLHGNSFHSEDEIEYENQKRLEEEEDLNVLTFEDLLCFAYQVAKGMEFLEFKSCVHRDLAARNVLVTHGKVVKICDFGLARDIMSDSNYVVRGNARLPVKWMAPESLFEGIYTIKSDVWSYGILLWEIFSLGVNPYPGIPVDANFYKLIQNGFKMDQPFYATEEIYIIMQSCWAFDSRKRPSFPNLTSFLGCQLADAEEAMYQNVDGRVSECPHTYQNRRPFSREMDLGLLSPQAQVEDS
More on the design: SelectScreen Z'-LYTE purified kinase panel, per cent inhibition, mean of two points. The settings on record: (μM)=Km app.

Another experiment addresses T2, JAK3 (Homo sapiens, UniProt P52333).
T2 sequence (P52333 1-1124): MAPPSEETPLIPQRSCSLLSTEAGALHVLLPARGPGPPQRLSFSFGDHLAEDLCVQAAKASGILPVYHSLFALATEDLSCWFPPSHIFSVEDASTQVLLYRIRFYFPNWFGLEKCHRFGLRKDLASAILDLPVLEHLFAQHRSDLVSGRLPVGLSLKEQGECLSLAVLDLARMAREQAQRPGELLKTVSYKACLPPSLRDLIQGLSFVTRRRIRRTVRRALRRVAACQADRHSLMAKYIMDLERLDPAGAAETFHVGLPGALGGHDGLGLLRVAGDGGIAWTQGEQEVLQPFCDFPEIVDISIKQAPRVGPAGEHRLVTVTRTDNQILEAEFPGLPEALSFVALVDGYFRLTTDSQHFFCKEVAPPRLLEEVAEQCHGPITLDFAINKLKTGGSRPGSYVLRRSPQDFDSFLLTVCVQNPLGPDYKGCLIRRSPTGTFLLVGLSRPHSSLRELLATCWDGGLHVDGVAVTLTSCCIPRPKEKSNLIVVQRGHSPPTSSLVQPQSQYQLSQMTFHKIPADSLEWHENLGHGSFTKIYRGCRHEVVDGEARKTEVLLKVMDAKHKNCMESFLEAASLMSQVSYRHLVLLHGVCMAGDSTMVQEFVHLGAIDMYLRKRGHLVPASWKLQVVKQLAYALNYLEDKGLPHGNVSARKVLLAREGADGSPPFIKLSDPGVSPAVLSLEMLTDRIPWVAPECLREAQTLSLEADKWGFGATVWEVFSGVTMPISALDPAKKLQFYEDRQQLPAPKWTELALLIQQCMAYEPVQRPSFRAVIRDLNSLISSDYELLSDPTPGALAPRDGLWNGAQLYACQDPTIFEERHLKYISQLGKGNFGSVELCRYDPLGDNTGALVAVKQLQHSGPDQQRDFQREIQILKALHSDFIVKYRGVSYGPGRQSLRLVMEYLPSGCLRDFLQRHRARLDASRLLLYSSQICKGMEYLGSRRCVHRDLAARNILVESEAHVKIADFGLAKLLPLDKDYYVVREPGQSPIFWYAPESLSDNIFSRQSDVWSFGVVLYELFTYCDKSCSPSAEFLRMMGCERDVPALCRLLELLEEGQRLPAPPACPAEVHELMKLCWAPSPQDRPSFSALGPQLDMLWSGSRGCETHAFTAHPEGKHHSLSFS
Set-up: SelectScreen Z'-LYTE purified kinase panel, per cent inhibition, mean of two points. The settings on record: (μM)=Km app.

The target of another experiment is RET (Homo sapiens, UniProt P07949). More on the design: SelectScreen Z'-LYTE purified kinase panel, per cent inhibition, mean of two points. To be noted: (μM)=Km app.
The target in the next experiment is T3, PI3KC2β (Homo sapiens, UniProt O00750).
T3 construct: gene PIK3C2B
Set-up: ADP-Glo lipid kinase assay with liver PI substrate, luminescence. To be noted: read-out: PITCOIN3 (IC50).

pIC50: −log10 of the molar value.

RET, sequence (P07949 whole entry): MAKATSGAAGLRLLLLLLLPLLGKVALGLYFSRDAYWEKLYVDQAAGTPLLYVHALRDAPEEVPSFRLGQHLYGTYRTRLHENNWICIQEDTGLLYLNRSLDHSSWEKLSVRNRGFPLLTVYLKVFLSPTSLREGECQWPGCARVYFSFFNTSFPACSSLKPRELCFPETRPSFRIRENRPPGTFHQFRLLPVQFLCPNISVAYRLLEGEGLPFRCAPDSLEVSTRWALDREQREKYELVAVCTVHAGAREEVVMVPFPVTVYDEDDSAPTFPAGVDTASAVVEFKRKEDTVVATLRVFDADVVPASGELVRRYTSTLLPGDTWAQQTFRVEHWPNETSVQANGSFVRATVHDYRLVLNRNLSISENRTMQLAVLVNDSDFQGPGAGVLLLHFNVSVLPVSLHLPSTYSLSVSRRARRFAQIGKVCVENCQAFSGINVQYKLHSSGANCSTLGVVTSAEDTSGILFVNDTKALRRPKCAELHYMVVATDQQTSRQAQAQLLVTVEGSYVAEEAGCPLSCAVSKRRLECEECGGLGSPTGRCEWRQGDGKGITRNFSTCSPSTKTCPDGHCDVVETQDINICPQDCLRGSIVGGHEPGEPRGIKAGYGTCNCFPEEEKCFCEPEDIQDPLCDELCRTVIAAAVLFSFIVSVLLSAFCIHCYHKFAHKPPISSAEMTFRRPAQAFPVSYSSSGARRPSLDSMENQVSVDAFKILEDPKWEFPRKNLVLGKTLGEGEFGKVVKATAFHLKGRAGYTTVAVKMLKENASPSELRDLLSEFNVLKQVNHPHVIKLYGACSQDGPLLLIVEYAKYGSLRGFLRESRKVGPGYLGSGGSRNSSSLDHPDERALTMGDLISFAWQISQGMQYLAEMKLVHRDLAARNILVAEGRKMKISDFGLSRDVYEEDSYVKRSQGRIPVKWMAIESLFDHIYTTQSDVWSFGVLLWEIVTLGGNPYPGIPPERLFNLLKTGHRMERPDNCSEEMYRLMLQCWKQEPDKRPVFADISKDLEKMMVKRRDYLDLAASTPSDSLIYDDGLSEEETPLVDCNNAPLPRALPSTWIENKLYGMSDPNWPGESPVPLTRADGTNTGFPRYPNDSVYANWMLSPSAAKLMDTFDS
T3 sequence (O00750 whole entry): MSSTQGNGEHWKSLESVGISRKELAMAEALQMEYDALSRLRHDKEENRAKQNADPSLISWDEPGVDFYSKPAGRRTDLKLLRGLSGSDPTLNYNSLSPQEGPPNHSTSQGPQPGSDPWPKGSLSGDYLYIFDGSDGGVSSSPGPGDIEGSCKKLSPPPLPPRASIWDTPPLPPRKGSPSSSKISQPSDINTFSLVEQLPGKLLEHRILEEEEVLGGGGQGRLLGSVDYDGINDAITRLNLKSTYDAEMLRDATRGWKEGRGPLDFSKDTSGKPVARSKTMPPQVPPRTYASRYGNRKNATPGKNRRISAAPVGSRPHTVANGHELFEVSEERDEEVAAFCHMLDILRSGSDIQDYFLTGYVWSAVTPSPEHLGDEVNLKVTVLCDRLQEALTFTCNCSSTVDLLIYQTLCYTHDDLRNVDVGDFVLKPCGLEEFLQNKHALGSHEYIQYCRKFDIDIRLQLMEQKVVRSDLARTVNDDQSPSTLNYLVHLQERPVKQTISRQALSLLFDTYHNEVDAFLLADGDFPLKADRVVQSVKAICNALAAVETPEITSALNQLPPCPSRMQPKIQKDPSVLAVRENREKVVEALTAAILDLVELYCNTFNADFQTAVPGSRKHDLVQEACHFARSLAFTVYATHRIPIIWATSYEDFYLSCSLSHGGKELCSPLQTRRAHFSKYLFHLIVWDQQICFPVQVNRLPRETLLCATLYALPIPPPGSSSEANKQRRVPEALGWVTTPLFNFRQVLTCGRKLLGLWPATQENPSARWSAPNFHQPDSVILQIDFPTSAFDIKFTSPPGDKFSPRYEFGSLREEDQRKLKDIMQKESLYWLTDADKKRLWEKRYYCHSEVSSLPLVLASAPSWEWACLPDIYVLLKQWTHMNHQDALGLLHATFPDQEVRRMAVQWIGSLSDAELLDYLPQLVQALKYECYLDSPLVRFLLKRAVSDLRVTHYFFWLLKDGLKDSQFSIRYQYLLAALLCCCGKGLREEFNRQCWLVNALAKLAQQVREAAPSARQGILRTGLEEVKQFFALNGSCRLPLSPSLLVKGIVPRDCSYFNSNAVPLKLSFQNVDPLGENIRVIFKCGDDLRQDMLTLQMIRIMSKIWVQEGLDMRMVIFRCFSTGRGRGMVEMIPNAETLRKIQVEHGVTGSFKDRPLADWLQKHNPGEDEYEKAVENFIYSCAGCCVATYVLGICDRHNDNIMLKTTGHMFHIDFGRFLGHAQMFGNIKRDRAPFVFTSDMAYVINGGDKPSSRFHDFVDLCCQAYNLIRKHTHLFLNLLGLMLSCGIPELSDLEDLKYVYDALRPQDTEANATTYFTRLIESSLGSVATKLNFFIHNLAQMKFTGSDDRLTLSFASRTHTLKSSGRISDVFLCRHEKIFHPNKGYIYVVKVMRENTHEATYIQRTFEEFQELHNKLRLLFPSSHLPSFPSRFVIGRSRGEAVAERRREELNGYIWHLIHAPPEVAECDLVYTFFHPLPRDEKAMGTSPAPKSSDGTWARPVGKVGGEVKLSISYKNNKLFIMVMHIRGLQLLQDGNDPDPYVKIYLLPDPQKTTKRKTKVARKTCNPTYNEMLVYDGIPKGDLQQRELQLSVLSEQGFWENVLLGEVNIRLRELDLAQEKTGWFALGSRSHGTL

For the compound `O=C(CSc1nc2nccnc2c(=O)n1CCc1ccccc1)Nc1nccs1` [compound 1, PITCOIN1], at FLT3, the inhibition at 1 µM was 9.16%, the inhibition at 3 µM is 8.82% and the inhibition at 10 µM is 8.33%. In addition, at JAK3, the inhibition at 1 µM was -0.818%, the inhibition at 3 µM is -2.14% and the inhibition at 10 µM turned out to be 0.865%. Also, on RET, the inhibition at 1 µM is 4.11%, the inhibition at 3 µM came out at 3.69% and the inhibition at 10 µM amounted to 4.56%.

Regarding `CS(=O)(=O)Nc1cccc(-c2csc(NC(=O)CSc3nc4nccnc4c(=O)n3CCc3ccccc3)n2)c1` [compound 3, PITCOIN3], at FLT3, the inhibition at 1 µM is 12.3%, the inhibition at 3 µM is 11% and the inhibition at 10 µM is 12.7%. At JAK3, the inhibition at 1 µM was 1.86%, the inhibition at 3 µM was -1.56% and the inhibition at 10 µM was -1.58%. On RET, the inhibition at 1 µM is 7.87%, the inhibition at 3 µM came out at 5.35% and the inhibition at 10 µM is 5%. For the same compound, the pIC50 at PI3KC2β is less than 5.00.
